# What was measured:
# [1] = target: T1, hASBT (Homo sapiens, UniProt Q12908); assay: Inhibition of taurocholate uptake in hASBT-MDCK monolayers; assay type: cell-based; conditions: for fold more potent than 33: ratio of Ki relative to 33
# T1 sequence (Q12908 1-348): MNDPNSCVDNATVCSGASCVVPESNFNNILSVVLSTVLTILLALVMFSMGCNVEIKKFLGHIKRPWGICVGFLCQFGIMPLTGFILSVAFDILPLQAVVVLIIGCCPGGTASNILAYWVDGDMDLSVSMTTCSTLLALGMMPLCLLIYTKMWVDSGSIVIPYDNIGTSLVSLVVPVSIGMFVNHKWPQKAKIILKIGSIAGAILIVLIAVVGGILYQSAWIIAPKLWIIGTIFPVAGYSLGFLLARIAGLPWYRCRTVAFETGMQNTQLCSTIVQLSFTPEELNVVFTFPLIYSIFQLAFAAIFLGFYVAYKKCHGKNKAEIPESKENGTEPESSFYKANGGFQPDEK
# [2] = target: T1, hASBT; conditions: previously reported; cited from earlier work
compound,measurement,setting,value
CC(CCC(=O)NC(CCC(=O)Nc1cccc(C(=O)O)c1)C(=O)OOCc1ccccc1)C1CCC2C3C(O)CC4CC(O)CCC4(C)C3CCC12C (centres unmarked) [Compound 30],hASBT inhibition potency,[1]; inhibition of taurocholate uptake,potent inhibitor
C[C@H](CCC(=O)N[C@@H](CCC(=O)Nc1ccccc1C(=O)O)C(=O)O)[C@H]1CC[C@H]2[C@@H]3[C@H](O)C[C@H]4C[C@H](O)CC[C@]4(C)[C@H]3CC[C@]12C [Compound 31],fold more potent than 33,[1],over 2 fold
C[C@H](CCC(=O)N[C@@H](CCC(=O)Nc1cccc(C(=O)O)c1)C(=O)O)[C@H]1CC[C@H]2[C@@H]3[C@H](O)C[C@H]4C[C@H](O)CC[C@]4(C)[C@H]3CC[C@]12C [Compound 32],Affinity (switch on or off),"[1]; observed affinity of dianions, molecular switch state",High (on)
same,fold more potent than 33,[1],over 2 fold
"C[C@H](CCC(=O)N[C@@H](CCC(=O)O)C(=O)O)[C@H]1CC[C@H]2[C@@H]3[C@H](O)C[C@@H]4C[C@H](O)CC[C@]4(C)[C@H]3CC[C@]12C [glu-CDCA, Glutamic acid CDCA amide]",hASBT activity,[2],poor activity

# Reference: article PMC2891776 (Journal of medicinal chemistry, 2010)
